In patent publication US20240025899A1, “TRIHETEROCYCLIC DERIVATIVE, AND PHARMACEUTICAL COMPOSITION AND APPLICATION THEREOF” (SHANGHAI DE NOVO PHARMATECH CO., LTD., priority 2020, published 2024) one finds IC50 data, which are given here for two compounds.

Assay [1] addresses hERG channel (Homo sapiens (Human), UniProt Q12809). The assay can be described thus: Cardiac safety evaluation, hERG study (QPatch whole-cell recording). The format is cell-based. As to conditions: CHO cell line expressing hERG channel. As to the method:
In this experiment, a CHO cell line stably transfected with hERG cDNA and expressing p15 hERG channel was used. Cells were incubated at 37° C. in a humidified incubator containing 5% CO2 in medium (Ham's F12, 10% v/v FBS, 100 μg/mL hygromycin B, 100 μg/mL geneticin) (from Invitrogen). Cells were grown under the above conditions and reached approximately 80-90% of the confluency. Cells were treated with Detachin (Genlantis) for 3 to 5 minutes. The medium was titrated 15 to 20 times at 37° C., and then the cells were resuspended in CHO-S-SFM II medium (serum-free medium, Invitrogen) buffered with HEPES (25 mM). Cells used for QPatch studies must meet the following criteria: Most suspension cells should be single and isolated under microscopy; viability should be greater than 95%; cell density in the final suspension should be in the range of 3 to 8×10^6 cells/mL before application to the QPatch stir chamber. Cells meeting the above conditions can be used for recordings within 4 hours of harvest.
Test compounds were made into 10 mM DMSO stock solutions. Six doses (30, 10, 3, 1, 0.3 and 0.1 μM) were selected to obtain the fitted curves and IC50. The final DMSO concentration was 0.1% or less. The IC50 of the positive control cisapride was assessed at doses of 3, 1, 0.3, 0.1, 0.03 and 0.01 μM, respectively. Composition of […] for electrophysiological recordings: CaCl2 2 mM, MgCl2 1 mM, KCl 4 mM, NaCl 145 mM, Glucose 10 mM, HEPES 10 mM, pH 7.4 (NaOH), composition of external solution: CaCl2 […], MgCl2 1.75 mM, KCl 120 mM, HEPES 10 mM, EGTA 5 mM, Na-ATP 4 mM, pH 7.25 (KOH) (all reagents used were from sigma).
Whole-cell recordings were performed using automated QPatch (Sophion Biosciences, Denmark). Cells were recorded for 120 s to assess current stability. The above voltages were then applied to the cells every 15 s throughout the procedure. […]
The data were analyzed with Sophion Assay software (determination software V5.0), Microsoft Excel and Graphpad Prism 5.0 to obtain IC50 of compounds.

Assay [2] has as its target CYP2C19 (Homo sapiens (Human), UniProt P33261). The assay can be described thus: Cytochrome oxidase P450 inhibition study, CYP2C19. As to conditions: human liver microsomes; read-out: IC50 2C19. The format is in vitro ADME. As to the method: LC-MS/MS methods were used to evaluate the inhibitory effects of compounds on CYP2C19, 2D6 and 3A4 subtypes. In this method, the test compound was mixed with a solution of human liver microsomes containing CYP model substrates, and incubated together under the addition of NADPH, then the inhibitory IC50 of the compound on CYP2C19, 2D6 and 3A4 was calculated by measuring the amount of metabolites of the model substrate in the reaction solution. The specific experimental method is as follows:
Compounds to be tested were prepared as stock solutions at 10 mM concentration with DMSO and then diluted to 4 mM with acetonitrile solution. At the same time, the corresponding reference inhibitor solutions for CYP subtypes were prepared, for example, the reference inhibitor was Ketoconazole, then these two compounds were prepared separately ([…] of inhibitor DMSO stock solution+[…] of acetonitrile), and the samples prepared under the above conditions were at 400× concentration. Then, the above solution was 3-fold diluted with DMSO/acetonitrile mixture (v/v: 40/60) to prepare the final test solution, and seven concentration points were set for each test compound, and the initial test final concentration was 10 μM. […]
[…] of human liver microsome solution (0.2 mg/mL) was added to each well containing the test compound in the 96-well plate, and then 2 mL of the final test sample of test compounds prepared by serial dilution as described above was added thereto; for each well corresponding to the reference inhibitors, […] of human liver microsome solution (0.2 mg/mL) and 1 mL of the final test sample were added. […] The inhibition rate was determined by comparing the amount of model substrate metabolites at each test concentration without test substance addition, in the GraphPad Prism 5.0 software, the logarithm of the test concentration was used as the abscissa and the inhibition rate was used as the ordinate to perform a linear regression (Sigmoidal (non-linear) dose-response model) analysis to obtain the IC50 value of the test compound.
For orientation: Liver microsomes are vesicles of endoplasmic reticulum, rich in cytochrome P450 enzymes.

Assay [3] concerns LOVO human colon cancer cell line. The assay can be described thus: Cell proliferation assay (Cell titer glo). The format is cell-based. As to conditions: LOVO cells, 72 hours. As to the method: In the present disclosure, cell assays were used to evaluate the biological activity of compounds. LOVO (Nanjing Cobioer), a human colon cancer cell line, was cultured in a Dulbecco's Modified Eagle's medium 96-well plate, supplemented with 10% fetal bovine serum and 1% P/S, and the culture environment was 37° C. and 5% CO2. Compound concentrations were ranged from 4.5 nM to 30 μM. The stock solution of the test compound was dissolved in DMSO and added to the medium at the indicated concentration, and incubated for 72 hours. Negative control cells were treated with vehicle only. In some experiments, known ATR inhibitors were added as positive controls. Cell viability was evaluated using the Cell titer glo kit (CTG, Promega) under the instructions of the product specification. The data were analyzed using Graphpad software, and IC50 values and compound fitting curves were obtained (Table 2).
On the technique in general: ATP-based viability assays read luminescence as a measure of living cells.

pIC50: −log10 of the molar value. Structures can show the parent of a compound that is named as a salt. Some results are limits rather than exact numbers.

hERG channel, sequence (Q12809 whole entry): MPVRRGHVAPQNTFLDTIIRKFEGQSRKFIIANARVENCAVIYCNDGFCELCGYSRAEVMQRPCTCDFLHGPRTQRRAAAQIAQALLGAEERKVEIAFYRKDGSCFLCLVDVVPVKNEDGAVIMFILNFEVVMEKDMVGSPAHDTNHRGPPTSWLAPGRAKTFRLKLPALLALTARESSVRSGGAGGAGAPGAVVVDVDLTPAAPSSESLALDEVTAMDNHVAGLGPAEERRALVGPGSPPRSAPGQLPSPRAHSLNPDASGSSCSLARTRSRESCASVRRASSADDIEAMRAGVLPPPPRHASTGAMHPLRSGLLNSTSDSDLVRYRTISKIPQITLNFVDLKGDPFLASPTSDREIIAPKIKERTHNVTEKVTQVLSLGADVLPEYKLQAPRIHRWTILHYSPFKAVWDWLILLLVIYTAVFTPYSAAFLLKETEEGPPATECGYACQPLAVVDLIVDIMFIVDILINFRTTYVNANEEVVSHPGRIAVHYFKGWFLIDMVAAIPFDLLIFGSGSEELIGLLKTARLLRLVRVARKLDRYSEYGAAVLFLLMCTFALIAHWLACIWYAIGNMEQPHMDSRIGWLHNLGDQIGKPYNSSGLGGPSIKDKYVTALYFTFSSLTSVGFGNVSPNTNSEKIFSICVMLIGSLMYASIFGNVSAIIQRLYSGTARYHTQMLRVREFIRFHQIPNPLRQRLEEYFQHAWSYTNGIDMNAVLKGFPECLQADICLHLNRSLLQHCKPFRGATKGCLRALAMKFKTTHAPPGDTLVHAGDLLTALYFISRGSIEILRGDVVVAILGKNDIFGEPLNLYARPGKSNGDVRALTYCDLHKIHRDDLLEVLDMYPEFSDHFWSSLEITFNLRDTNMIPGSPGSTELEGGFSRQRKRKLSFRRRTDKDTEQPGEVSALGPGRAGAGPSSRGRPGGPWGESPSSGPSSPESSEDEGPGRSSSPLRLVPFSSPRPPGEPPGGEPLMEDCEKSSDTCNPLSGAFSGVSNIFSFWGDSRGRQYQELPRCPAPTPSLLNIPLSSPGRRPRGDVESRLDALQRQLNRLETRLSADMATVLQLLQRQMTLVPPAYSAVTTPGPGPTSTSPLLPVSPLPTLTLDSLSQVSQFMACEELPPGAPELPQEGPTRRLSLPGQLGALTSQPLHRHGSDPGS
CYP2C19, sequence (P33261 whole entry): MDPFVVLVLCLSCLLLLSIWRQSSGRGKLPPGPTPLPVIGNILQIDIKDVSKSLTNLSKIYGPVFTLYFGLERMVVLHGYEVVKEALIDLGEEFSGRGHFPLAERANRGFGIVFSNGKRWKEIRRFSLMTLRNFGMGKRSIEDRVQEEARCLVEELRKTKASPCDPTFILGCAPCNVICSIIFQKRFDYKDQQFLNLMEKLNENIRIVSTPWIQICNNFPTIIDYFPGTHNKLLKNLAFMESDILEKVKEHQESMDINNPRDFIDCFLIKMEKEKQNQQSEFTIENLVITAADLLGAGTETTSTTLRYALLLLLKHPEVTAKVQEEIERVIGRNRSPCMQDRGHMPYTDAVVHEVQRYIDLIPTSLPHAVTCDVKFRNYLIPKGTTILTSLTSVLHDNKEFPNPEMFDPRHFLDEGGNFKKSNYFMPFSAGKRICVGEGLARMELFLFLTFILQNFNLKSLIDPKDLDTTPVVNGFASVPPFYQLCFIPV

Turning to `C[C@@H]1COCCN1c1nc2c(cnn2-c2cc[nH]n2)c2c1ccn2S(C)(=O)=O` [Compound 1, (R)-3-methyl-4-(1-(methylsulfonyl)-6-(1H-pyrazol-3-yl)-1,6-dihydropyrazolo[3,4-b]pyrrolo[2,3-d]pyridin-4-yl)morpholine trifluoroacetate], the pIC50 in assay [1] was less than 4.52; in assay [2], less than 5.00; in assay [3], 7.53.
The corresponding values for `C[C@@H]1COCCN1c1nc2c(cnn2-c2cc[nH]n2)c2c1CCN2S(C)(=O)=O` [Compound 2, (R)-3-methyl-4-(1-(methylsulfonyl)-6-(1H-pyrazol-3-yl)-1,2,3,6-tetrahydropyrazolo[3,4-b]pyrrolo[2,3-d]pyridin-4-yl)morpholine trifluoroacetate] are less than 4.52, less than 5.00 and 7.43.

The pIC50 is the negative decadic logarithm of the IC50, by convention in mol/L.
